From patent publication US20250288587A1, “Methods of Treating Fibrosis” (Athira Pharma, Inc., priority 2022, published 2025)

How the values were obtained:
[1] = system: C57BL/6 mice, bleomycin-induced pulmonary fibrosis; assay: Bleomycin-induced pulmonary fibrosis in mice; assay type: in vivo; design: key to Collagen, improvement in BLM-induced alterations versus disease control / Alpha-Smooth Muscle Actin, improvement in BLM-induced alterations versus disease control / Body Weight, improvement in BLM-induced alterations versus disease control / Right Lung Weight, improvement in BLM-induced alterations versus disease control / Hydroxyproline, improvement in BLM-induced alterations versus disease control: + = >5-25% improvement vs disease control; ++ = >26-50% improvement vs disease control; +++ = >51-100% improvement v disease control; NS means not significant; conditions: for Body Weight, improvement in BLM-induced alterations versus disease control / Right Lung Weight, improvement in BLM-induced alterations versus disease control: days 3-21; for Collagen, improvement in BLM-induced alterations versus disease control / Hydroxyproline, improvement in BLM-induced alterations versus disease control / TGF-Beta, improvement in BLM-induced alterations versus disease control: right lung homogenate
Procedure: Lung fibrosis in C57BL/6 mice is induced by a single […] injection of the chemotherapy drug bleomycin. Mice are treated with vehicle or test compound. At termination (study day 28), one lung is weighed, with increased weight indicating more advanced fibrosis. Lung tissue is also homogenized for hydroxyproline, collagen, and TGF-β quantification. Lung tissue is also formalin-fixed and further processed for H&E, collagen morphometry, Ashcroft's score, and both α-SMA and TUNEL expression analyses. Plasma is analyzed by multiplex bead array for MMP-2, MMP-9, IL-1β, IL-6, IL-12, and TNF-α expression.
The experimental design described in Example B1 with the following changes was used to assess the ability of Compound 1a to reduce pulmonary fibrosis. Briefly, Male C57BL/6 mice (Envigo) […] were used. The mice were 3.5-4 months old and ˜24-30 g by weight. On day −1 animals were randomized based on body weight and the animals were assigned with a permanent number by ear notching. Cages were identified by cage cards indicating the study code, group number, sex, dose, cage number, number of animals and animal number details.
On day 0, all animals (except the sham control animals) were administered bleomycin (0.03 U in 50 μl normal saline) intratracheally (i.t.) under Ketamine+Xylazine anesthesia. The sham control animals were dosed with 50 μl of normal saline intratracheally. Pirfenidone was used as a positive control; this compound is known to downregulate growth factors and procollagens to reduce fibrosis and is an approved drug for the treatment of idiopathic pulmonary fibrosis.
Vehicle, pirfenidone and test Compound 1a dosing was initiated from day 3 to day 21 as described in the following Table 2. On day 21 whole blood was collected 1-hour post-dose into EDTA and then processed to plasma. Right lungs were then collected, weighed, snap frozen and later homogenized for biochemical analysis. Hydroxyproline, collagen and TGF-Beta levels were measured in the right lung homogenates.

[2] = system: CFA-stimulated rats; assay: CFA inflammatory pain model, mechanical allodynia (von Frey test); assay type: in vivo; design: key to Mechanical Allodynia, change in sensitivity compared to CFA alone / Mechanical Allodynia, significant reduction in pain behavior vs CFA alone: NS = no statistically significant change in sensitivity compared to CFA alone; + = statistically significant change in sensitivity compared to CFA alone, p < 0.05; conditions: for study days on which sensitivity to mechanical stimulation was reduced: PO, post-dose testing, any tested dose; for PWT (paw withdrawal threshold) vs CFA+vehicle: data not shown
Procedure: Response to peripheral inflammatory stimulus can be modeled by administering complete Freund's adjuvant (CFA), a suspension of desiccated mycobacterium in paraffin oil and mannide monooleate, by subcutaneous injection into the rat's footpad. The introduction of CFA to peripheral tissues leads to a rapid, sustained, inflammatory reaction in the treated tissue within 24 hours. Subcutaneous administration of CFA in the plantar region of the paw induces inflammatory pain behaviors that persist for at least 8 days. CFA treatment also leads to the accumulation of inflammatory cytokines in paw tissue at the site of injury, which, if unresolved, can lead to formation of fibrotic tissue. The extent of inflammatory response to CFA can be assessed by quantification of inflammatory cytokines in paw skin lysate, and inflammatory pain behaviors by mechanical allodynia (von Frey test) and thermal hyperalgesia (Hargreaves test).
In one study, Compound 2a was tested for its ability to reduce inflammatory pain behaviors in the CFA inflammation model. On study day 0, […] of CFA was administered subcutaneously in the plantar of the right hind paw. Animals were treated daily with Compound 2a in solution via oral gavage (PO) at doses of 1, 0.1, and 0.025 mg/kg. Treatment began before CFA injection on study day −1 and continued through study day 8.
Mechanical allodynia was measured using the von Frey test. In this test, rats were placed on a wire mesh and a series of filaments designed to deliver probing force ranging from 4 to 26 grams were applied to the mid-plantar surface of the right hind paw. Animals indicated pain response by lifting the probed paw. The minimal force required to elicit the withdrawal response was recorded as the paw withdrawal threshold (PWT). Von Frey testing was performed 1 hour after Compound 2a dosing on study day 1, 3, and 7, and was also tested pre-dosing on day 7. Statistical analysis was performed using a 1-way ANOVA with Tukey post-test. A p-value below 0.05 was considered statistically significant. Control animals stimulated with CFA but treated with only vehicle had high sensitivity to mechanical stimulation compared to normal control animals.
In another study, Compounds 1a, 5a, and 6a were similarly tested against CFA-induced inflammatory stimulation in the right hind foot for their ability to reduce pain behaviors. This study also included quantification of inflammatory cytokine expression in paw skin lysate. Inflammatory pain stimulation with CFA injection and assessment of mechanical and thermal pain behaviors were performed as described above, with the exception that only post-dose pain behavior testing is reported.
Intraplantar CFA injection occurred at day 0. Treatment with Compounds 1a, 5a, and 6a occurred at days −2, 1, 3, and 7. At day 8, the rats were terminated and cytokine levels were measured in paw skin and plasma. Tissue from paw bone, joint, and muscle were obtained for H&E staining and analysis. Cytokine levels in test compound-treated animals were compared to CFA-stimulated animals. Analytes included interleukin 4 (IL-4), tumor necrosis factor alpha (TNF-α) and interferon gamma (IFN-γ). Statistical analysis consisted of 1-way ANOVA followed by Dunnett's multiple comparisons post-test. Mechanical allodynia and thermal hyperalgesia were tested 1 hour post-dosing on days 1, 3, and 7. PWT refers to […] paw withdrawal threshold where a higher value corresponds to a higher pain threshold. PWL refers to […] paw withdrawal latency where a higher value corresponds to a higher pain threshold.

[3] = dose 0.2 mg/kg PO daily, day 21
[4] = dose 0.8 mg/kg PO daily, day 21

CCC(C)CN1CC2N(C(=O)c3ccc(C(F)(F)F)cc3)CCC(=O)N2[C@@H](C)C1=O (stereo partly drawn) [Compound 1a]
body weight loss compared to the other treatment groups ([1]; 0.8 mg/k): slightly greater weight loss
collagen in right lung homogenate compared with pirfenidone ([1]; 2 mg/kg): about the same levels of collagen
collagen concentration in right lung homogenates ([1]; 8 mg/kg): reduced compared to the pirfenidone positive control
hydroxyproline concentration in right lung homogenates at termination ([1]; 8 mg/kg and 2 mg/kg, also less than pirfenidone-treated animals): lower concentrations of hydroxyproline
weight of whole right lungs at termination (day 21) ([1]; 8 mg/kg and 2 mg/kg, versus pirfenidone-treated animals): less than the positive control
alpha-smooth muscle actin expression ([1]; 8 mg/kg, day 21): significantly reduced expression of this marker
bleomycin-induced increases in TGF-β in right lung homogenates ([1]; all doses, day 21): significantly protected against bleomycin-induced increases in TGF-β
protection against bleomycin-induced body weight loss ([1]; all treatment groups, over the study period): did not protect against body weight loss
Body Weight, improvement in BLM-induced alterations versus disease control ([1]; dose 0.2 mg/kg PO daily): NS
Right Lung Weight, improvement in BLM-induced alterations versus disease control [1, 3]: NS
Alpha-Smooth Muscle Actin, improvement in BLM-induced alterations versus disease control [1, 3]: + (+ = >5-25% improvement vs disease control)
Collagen, improvement in BLM-induced alterations versus disease control [1, 3]: NS
Hydroxyproline, improvement in BLM-induced alterations versus disease control [1, 3]: NS
TGF-Beta, improvement in BLM-induced alterations versus disease control [1, 3]: +++ (+++ = >51-100% improvement v disease control)
Body Weight, improvement in BLM-induced alterations versus disease control ([1]; dose 0.8 mg/kg PO daily): NS
Right Lung Weight, improvement in BLM-induced alterations versus disease control [1, 4]: + (+ = >5-25% improvement vs disease control)
Alpha-Smooth Muscle Actin, improvement in BLM-induced alterations versus disease control [1, 4]: NS
Collagen, improvement in BLM-induced alterations versus disease control [1, 4]: + (+ = >5-25% improvement vs disease control)
Hydroxyproline, improvement in BLM-induced alterations versus disease control [1, 4]: NS
TGF-Beta, improvement in BLM-induced alterations versus disease control [1, 4]: +++ (+++ = >51-100% improvement v disease control)
Body Weight, improvement in BLM-induced alterations versus disease control ([1]; dose 2 mg/kg PO daily): NS
Right Lung Weight, improvement in BLM-induced alterations versus disease control ([1]; dose 2 mg/kg PO daily, day 21): + (+ = >5-25% improvement vs disease control)
Alpha-Smooth Muscle Actin, improvement in BLM-induced alterations versus disease control ([1]; dose 2 mg/kg PO daily, day 21): + (+ = >5-25% improvement vs disease control)
Collagen, improvement in BLM-induced alterations versus disease control ([1]; dose 2 mg/kg PO daily, day 21): ++ (++ = >26-50% improvement vs disease control)
Hydroxyproline, improvement in BLM-induced alterations versus disease control ([1]; dose 2 mg/kg PO daily, day 21): ++ (++ = >26-50% improvement vs disease control)
TGF-Beta, improvement in BLM-induced alterations versus disease control ([1]; dose 2 mg/kg PO daily, day 21): +++ (+++ = >51-100% improvement v disease control)
Body Weight, improvement in BLM-induced alterations versus disease control ([1]; dose 8 mg/kg PO daily): NS
Right Lung Weight, improvement in BLM-induced alterations versus disease control ([1]; dose 8 mg/kg PO daily, day 21): ++ (++ = >26-50% improvement vs disease control)
Alpha-Smooth Muscle Actin, improvement in BLM-induced alterations versus disease control ([1]; dose 8 mg/kg PO daily, day 21): ++ (++ = >26-50% improvement vs disease control)
Collagen, improvement in BLM-induced alterations versus disease control ([1]; dose 8 mg/kg PO daily, day 21): +++ (+++ = >51-100% improvement v disease control)
Hydroxyproline, improvement in BLM-induced alterations versus disease control ([1]; dose 8 mg/kg PO daily, day 21): + (+ = >5-25% improvement vs disease control)
TGF-Beta, improvement in BLM-induced alterations versus disease control ([1]; dose 8 mg/kg PO daily, day 21): +++ (+++ = >51-100% improvement v disease control)
alpha-smooth muscle actin morphometory ([1]; other doses of Compound 1a, pirfenidone doses, day 21): insignificant decreases
Mechanical Allodynia, significant reduction in pain behavior vs CFA alone ([2]; 8 mg/kg PO, Day 1, 1 h post-dose): + (+ = statistically significant change in sensitivity compared to CFA alone, p < 0.05)
Mechanical Allodynia, significant reduction in pain behavior vs CFA alone ([2]; 8 mg/kg PO, Day 3, 1 h post-dose): + (+ = statistically significant change in sensitivity compared to CFA alone, p < 0.05)
Mechanical Allodynia, significant reduction in pain behavior vs CFA alone ([2]; 8 mg/kg PO, Day 7, 1 h post-dose): NS
Mechanical Allodynia, significant reduction in pain behavior vs CFA alone ([2]; 16 mg/kg PO, Day 1, 1 h post-dose): + (+ = statistically significant change in sensitivity compared to CFA alone, p < 0.05)
Mechanical Allodynia, significant reduction in pain behavior vs CFA alone ([2]; 16 mg/kg PO, Day 3, 1 h post-dose): + (+ = statistically significant change in sensitivity compared to CFA alone, p < 0.05)
Mechanical Allodynia, significant reduction in pain behavior vs CFA alone ([2]; 16 mg/kg PO, Day 7, 1 h post-dose): + (+ = statistically significant change in sensitivity compared to CFA alone, p < 0.05)
study days on which sensitivity to mechanical stimulation was reduced [2]: study days 1, 3, and 7
PWT (paw withdrawal threshold) vs CFA+vehicle ([2]; day 1): statistically significant increase
PWT (paw withdrawal threshold) vs CFA+vehicle ([2]; day 3, 8 and 16 mg/kg): statistically significant increase
PWT (paw withdrawal threshold) vs CFA+vehicle ([2]; day 7, 16 mg/kg): statistically significant increase

CCC(C)CN1CC2N(Cc3ccc(C(F)(F)F)cc3)CCC(=O)N2[C@@H](C)C1=O (stereo partly drawn) [Compound 5a]
Mechanical Allodynia, significant reduction in pain behavior vs CFA alone ([2]; 10 mg/kg PO, Day 1, 1 h post-dose): + (+ = statistically significant change in sensitivity compared to CFA alone, p < 0.05)
Mechanical Allodynia, significant reduction in pain behavior vs CFA alone ([2]; 10 mg/kg PO, Day 3, 1 h post-dose): NS
Mechanical Allodynia, significant reduction in pain behavior vs CFA alone ([2]; 10 mg/kg PO, Day 7, 1 h post-dose): NS
Mechanical Allodynia, significant reduction in pain behavior vs CFA alone ([2]; 20 mg/kg PO, Day 1, 1 h post-dose): + (+ = statistically significant change in sensitivity compared to CFA alone, p < 0.05)
Mechanical Allodynia, significant reduction in pain behavior vs CFA alone ([2]; 20 mg/kg PO, Day 3, 1 h post-dose): NS
Mechanical Allodynia, significant reduction in pain behavior vs CFA alone ([2]; 20 mg/kg PO, Day 7, 1 h post-dose): NS
study days on which sensitivity to mechanical stimulation was reduced [2]: study day 1
PWT (paw withdrawal threshold) vs CFA+vehicle ([2]; day 1): statistically significant increase
